Assay results from patent publication US20050119321A1, “2-substituted-1,3-thiazole compounds” (priority 2002, published 2005).

Structure (SMILES)	melting point
COc1ccc(Nc2nc(N)c(C(C)=O)s2)cc1 [Example 3, 1-{4-Amino-2-[(4-methoxyphenyl)amino]-1,3-thiazol-5-yl}ethanone]	180 °C (dec.)
COc1ccc(CCC(=O)Nc2ncc([N+](=O)[O-])s2)cc1 [Example 5, 3-(4-Methoxyphenyl)-N-(5-nitro-1,3-thiazol-2-yl)propanamide]	224 to 227 °C (dec.)
COc1ccc(CCCC(=O)Nc2ncc([N+](=O)[O-])s2)cc1 [Example 6, 4-(4-Methoxyphenyl)-N-(5-nitro-1,3-thiazol-2-yl)butanamide]	176 to 177 °C
